Test: xn = mol fraction of the nth substance listed
Details: Liquid, Vibrating tube method

CC(C)CCl [1-chloro-2-methylpropane] + CCCCCCC
mass density [kg/m3]
Details | 283.15 K | 293.15 K | 298.15 K
100 kPa, x2 = 0.0531 | 874.07 | 862.97 | 857.37
100 kPa, x2 = 0.1023 | 861 | 850.09 | 844.58
100 kPa, x2 = 0.2009 | 836.3 | 825.74 | 820.42
100 kPa, x2 = 0.3009 | 813.26 | 803.04 | 797.89
100 kPa, x2 = 0.3981 | 792.55 | 782.63 | 777.63
100 kPa, x2 = 0.4986 | 772.68 | 763.05 | 758.2
100 kPa, x2 = 0.5998 | 754.11 | 744.76 | 740.04
100 kPa, x2 = 0.7038 | 736.38 | 727.31 | 722.73
100 kPa, x2 = 0.7993 | 721.25 | 712.4 | 707.93
100 kPa, x2 = 0.8995 | 706.4 | 697.78 | 693.43
100 kPa, x2 = 0.9507 | 699.19 | 690.68 | 686.38
2000 kPa, x2 = 0.0531 | 876.04 | 865 | 859.45
2000 kPa, x2 = 0.1023 | 862.99 | 852.14 | 846.69
2000 kPa, x2 = 0.2009 | 838.37 | 827.88 | 822.61
2000 kPa, x2 = 0.3009 | 815.32 | 805.15 | 800.07
2000 kPa, x2 = 0.3981 | 794.55 | 784.68 | 779.77
2000 kPa, x2 = 0.4986 | 774.64 | 765.08 | 760.3
2000 kPa, x2 = 0.5998 | 756.04 | 746.74 | 742.16
2000 kPa, x2 = 0.7038 | 738.29 | 729.29 | 724.79
2000 kPa, x2 = 0.7993 | 723.14 | 714.35 | 709.96
2000 kPa, x2 = 0.8995 | 708.31 | 699.74 | 695.5
2000 kPa, x2 = 0.9507 | 701.15 | 692.69 | 688.51
5000 kPa, x2 = 0.0531 | 879.03 | 868.28 | 862.78
5000 kPa, x2 = 0.1023 | 865.96 | 855.4 | 849.99
5000 kPa, x2 = 0.2009 | 841.29 | 831.08 | 825.85
5000 kPa, x2 = 0.3009 | 818.18 | 808.31 | 803.24
5000 kPa, x2 = 0.3981 | 797.37 | 787.79 | 782.87
5000 kPa, x2 = 0.4986 | 777.41 | 768.11 | 763.35
5000 kPa, x2 = 0.5998 | 758.77 | 749.74 | 745.14
5000 kPa, x2 = 0.7038 | 741 | 732.21 | 727.73
5000 kPa, x2 = 0.7993 | 725.78 | 717.25 | 712.83
5000 kPa, x2 = 0.8995 | 710.91 | 702.62 | 698.32
5000 kPa, x2 = 0.9507 | 703.73 | 695.55 | 691.31
7000 kPa, x2 = 0.0531 | 880.97 | 870.39 | 864.94
7000 kPa, x2 = 0.1023 | 867.88 | 857.47 | 852.13
7000 kPa, x2 = 0.2009 | 843.19 | 833.12 | 827.95
7000 kPa, x2 = 0.3009 | 820.06 | 810.3 | 805.31
7000 kPa, x2 = 0.3981 | 799.24 | 789.75 | 784.94
7000 kPa, x2 = 0.4986 | 779.24 | 770.05 | 765.38
7000 kPa, x2 = 0.5998 | 760.58 | 751.63 | 747.13
7000 kPa, x2 = 0.7038 | 742.77 | 734.07 | 729.69
7000 kPa, x2 = 0.7993 | 727.56 | 719.06 | 714.76
7000 kPa, x2 = 0.8995 | 712.67 | 704.42 | 700.23
7000 kPa, x2 = 0.9507 | 705.48 | 697.32 | 693.2
10000 kPa, x2 = 0.0531 | 883.84 | 873.43 | 868.11
10000 kPa, x2 = 0.1023 | 870.72 | 860.49 | 855.26
10000 kPa, x2 = 0.2009 | 845.97 | 836.1 | 831
10000 kPa, x2 = 0.3009 | 822.78 | 813.24 | 808.29
10000 kPa, x2 = 0.3981 | 801.92 | 792.65 | 787.84
10000 kPa, x2 = 0.4986 | 781.87 | 772.89 | 768.21
10000 kPa, x2 = 0.5998 | 763.16 | 754.46 | 749.91
10000 kPa, x2 = 0.7038 | 745.31 | 736.87 | 732.42
10000 kPa, x2 = 0.7993 | 730.05 | 721.81 | 717.45
10000 kPa, x2 = 0.8995 | 715.13 | 707.11 | 702.88
10000 kPa, x2 = 0.9507 | 707.91 | 700 | 695.78
20000 kPa, x2 = 0.0531 | 892.78 | 882.96 | 877.88
20000 kPa, x2 = 0.1023 | 879.6 | 869.95 | 865.08
20000 kPa, x2 = 0.2009 | 854.73 | 845.39 | 840.5
20000 kPa, x2 = 0.3009 | 831.42 | 822.38 | 817.71
20000 kPa, x2 = 0.3981 | 810.43 | 801.64 | 797.11
20000 kPa, x2 = 0.4986 | 790.3 | 781.73 | 777.37
20000 kPa, x2 = 0.5998 | 771.47 | 763.14 | 758.88
20000 kPa, x2 = 0.7038 | 753.52 | 745.41 | 741.28
20000 kPa, x2 = 0.7993 | 738.16 | 730.25 | 726.13
20000 kPa, x2 = 0.8995 | 723.13 | 715.39 | 711.41
20000 kPa, x2 = 0.9507 | 715.85 | 708.22 | 704.25
30000 kPa, x2 = 0.0531 | 900.97 | 891.52 | 886.78
30000 kPa, x2 = 0.1023 | 887.68 | 878.34 | 873.9
30000 kPa, x2 = 0.2009 | 862.6 | 853.68 | 849.18
30000 kPa, x2 = 0.3009 | 839.17 | 830.55 | 826.21
30000 kPa, x2 = 0.3981 | 818.12 | 809.73 | 805.55
30000 kPa, x2 = 0.4986 | 797.85 | 789.74 | 785.57
30000 kPa, x2 = 0.5998 | 778.93 | 771.06 | 766.94
30000 kPa, x2 = 0.7038 | 760.8 | 753.18 | 749.15
30000 kPa, x2 = 0.7993 | 745.44 | 737.88 | 733.94
30000 kPa, x2 = 0.8995 | 730.29 | 722.93 | 719.07
30000 kPa, x2 = 0.9507 | 722.95 | 715.7 | 711.84
40000 kPa, x2 = 0.0531 | 908.57 | 899.47 | 895.02
40000 kPa, x2 = 0.1023 | 895.22 | 886.28 | 882.04
40000 kPa, x2 = 0.2009 | 870.06 | 861.43 | 857.18
40000 kPa, x2 = 0.3009 | 846.56 | 838.11 | 834.09
40000 kPa, x2 = 0.3981 | 825.29 | 817.16 | 813.22
40000 kPa, x2 = 0.4986 | 804.92 | 797.04 | 793.13
40000 kPa, x2 = 0.5998 | 785.84 | 778.18 | 774.36
40000 kPa, x2 = 0.7038 | 767.67 | 760.15 | 756.46
40000 kPa, x2 = 0.7993 | 752.19 | 744.84 | 741.11
40000 kPa, x2 = 0.8995 | 736.93 | 729.76 | 726.12
40000 kPa, x2 = 0.9507 | 729.53 | 722.48 | 718.83
50000 kPa, x2 = 0.0531 | 915.66 | 906.83 | 902.53
50000 kPa, x2 = 0.1023 | 902.32 | 893.73 | 889.53
50000 kPa, x2 = 0.2009 | 876.98 | 868.58 | 864.58
50000 kPa, x2 = 0.3009 | 853.42 | 845.22 | 841.36
50000 kPa, x2 = 0.3981 | 832.08 | 824.17 | 820.34
50000 kPa, x2 = 0.4986 | 811.56 | 803.9 | 800.16
50000 kPa, x2 = 0.5998 | 792.36 | 784.93 | 781.27
50000 kPa, x2 = 0.7038 | 774.06 | 766.85 | 763.24
50000 kPa, x2 = 0.7993 | 758.41 | 751.39 | 747.78
50000 kPa, x2 = 0.8995 | 743.05 | 736.21 | 732.67
50000 kPa, x2 = 0.9507 | 735.59 | 728.86 | 725.32
60000 kPa, x2 = 0.0531 | 922.27 | 913.81 | 909.64
60000 kPa, x2 = 0.1023 | 908.86 | 900.5 | 896.54
60000 kPa, x2 = 0.2009 | 883.47 | 875.39 | 871.48
60000 kPa, x2 = 0.3009 | 859.78 | 851.83 | 848.21
60000 kPa, x2 = 0.3981 | 838.33 | 830.75 | 827.13
60000 kPa, x2 = 0.4986 | 817.73 | 810.36 | 806.82
60000 kPa, x2 = 0.5998 | 798.43 | 791.29 | 787.83
60000 kPa, x2 = 0.7038 | 780.03 | 773.13 | 769.72
60000 kPa, x2 = 0.7993 | 764.33 | 757.58 | 754.16
60000 kPa, x2 = 0.8995 | 748.87 | 742.31 | 738.97
60000 kPa, x2 = 0.9507 | 741.35 | 734.9 | 731.55
65000 kPa, x2 = 0.0531 | 925.46 | 917.1 | 913.06
65000 kPa, x2 = 0.1023 | 912 | 903.79 | 899.93
65000 kPa, x2 = 0.2009 | 886.55 | 878.75 | 874.82
65000 kPa, x2 = 0.3009 | 862.78 | 855.14 | 851.5
65000 kPa, x2 = 0.3981 | 841.29 | 833.84 | 830.36
65000 kPa, x2 = 0.4986 | 820.65 | 813.47 | 810
65000 kPa, x2 = 0.5998 | 801.22 | 794.31 | 790.97
65000 kPa, x2 = 0.7038 | 782.82 | 775.99 | 772.79
65000 kPa, x2 = 0.7993 | 767.1 | 760.39 | 757.19
65000 kPa, x2 = 0.8995 | 751.59 | 745.06 | 741.93
65000 kPa, x2 = 0.9507 | 744.04 | 737.63 | 734.52
